Assay results as given in ChEMBL document CHEMBL1201862, “PubChem BioAssay data set” (2004).
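Exposure lasted 48 hours, with cells grown in 96-well plates and compounds tested at five concentrations. The concentration for 50% growth inhibition is given as GI50.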 Activity calls are given as the source filed them. Cut-off read from the data, not from the text of the source: active = GI50 up to about 1.1 µM and inactive = higher.

How the values were obtained:
Experiment in all cases: NCI-60 cell line screen, 48 h
BT-549 = tested on: BT-549
CAKI-1 = tested on: CAKI-1
CCRF-CEM = tested on: CCRF-CEM
COLO 205 = tested on: COLO 205
K562 = tested on: K562
MDA-MB-231 = tested on: MDA-MB-231
MOLT-4 = tested on: MOLT-4
NCI-H522 = tested on: NCI-H522
NCI/ADR-RES = tested on: NCI/ADR-RES
OVCAR-3 = tested on: OVCAR-3
OVCAR-4 = tested on: OVCAR-4
OVCAR-8 = tested on: OVCAR-8
SF-295 = tested on: SF-295
SN12C = tested on: SN12C
SNB-75 = tested on: SNB-75
SR = tested on: SR
T47D = tested on: T47D
UO-31 = tested on: UO-31

| SMILES | GI50 (BT-549) | GI50 (CAKI-1) | GI50 (CCRF-CEM) | GI50 (COLO 205) | GI50 (K562) | GI50 (MDA-MB-231) | GI50 (MOLT-4) | GI50 (NCI-H522) | GI50 (NCI/ADR-RES) | GI50 (OVCAR-3) | GI50 (OVCAR-4) | GI50 (OVCAR-8) | GI50 (SF-295) | GI50 (SN12C) | GI50 (SNB-75) | GI50 (SR) | GI50 (T47D) | GI50 (UO-31) |
| --- | --- | --- | --- | --- | --- | --- | --- | --- | --- | --- | --- | --- | --- | --- | --- | --- | --- | --- |
| c1ccc(COC2NCCN2Cc2ccccc2)cc1 (centres undefined) | > 100 µM (inactive) | > 100 µM (inactive) | > 100 µM (inactive) | > 100 µM (inactive) | > 100 µM (inactive) | > 100 µM (inactive) | > 100 µM (inactive) | > 100 µM (inactive) | 84.5 µM (inactive) | > 100 µM (inactive) | > 100 µM (inactive) | > 100 µM (inactive) | > 100 µM (inactive) | > 100 µM (inactive) | 97.7 µM (inactive) | > 100 µM (inactive) | > 100 µM (inactive) | > 100 µM (inactive) |
| CN1C/C(=C\c2cccs2)C2=NN(c3ccccc3)C(c3cccs3)C2C1 (centres undefined) | 17.9 µM (inactive) | > 72.9 µM (inactive) | 2 µM (inactive) | 5.16 µM (inactive) | 3.96 µM (inactive) | 21.9 µM (inactive) | 3.4 µM (inactive) | 3.43 µM (inactive) | 3.77 µM (inactive) | 2.79 µM (inactive) | 4.47 µM (inactive) | 10.5 µM (inactive) | 4.95 µM (inactive) | 4.39 µM (inactive) | – | 1.71 µM (inactive) | 76 µM (inactive) | 50 µM (inactive) |
| N#Cc1c2ccc([N+](=O)[O-])cc2c(=O)n2c1sc1ccc(C(F)(F)F)cc12 | > 100 µM (inactive) | > 100 µM (inactive) | – | > 100 µM (inactive) | > 100 µM (inactive) | > 100 µM (inactive) | > 100 µM (inactive) | > 100 µM (inactive) | > 100 µM (inactive) | > 100 µM (inactive) | > 100 µM (inactive) | > 100 µM (inactive) | > 100 µM (inactive) | > 100 µM (inactive) | > 100 µM (inactive) | – | > 100 µM (inactive) | > 100 µM (inactive) |
| COc1cccc(/C=C/C2=NN(c3cccc(S(=O)(=O)O)c3)C3(C2)SCC(=O)N3c2nc3ccccc3s2)c1 (centres undefined) | 53 µM (inactive) | 50.9 µM (inactive) | 30.8 µM (inactive) | > 100 µM (inactive) | 34.3 µM (inactive) | 36.1 µM (inactive) | 28.2 µM (inactive) | 14.7 µM (inactive) | 53.3 µM (inactive) | – | 49.4 µM (inactive) | 40.7 µM (inactive) | – | 33.3 µM (inactive) | 74.6 µM (inactive) | 23.9 µM (inactive) | 16.1 µM (inactive) | 34.9 µM (inactive) |
| CC(=N\N=C\c1ccccn1)/C(C)=N/N=C/c1ccccn1 | > 100 µM (inactive) | > 100 µM (inactive) | > 100 µM (inactive) | > 100 µM (inactive) | – | > 100 µM (inactive) | > 10 µM (inactive) | > 100 µM (inactive) | > 100 µM (inactive) | > 100 µM (inactive) | 94.4 µM (inactive) | > 100 µM (inactive) | > 100 µM (inactive) | > 100 µM (inactive) | > 100 µM (inactive) | 88.5 µM (inactive) | > 100 µM (inactive) | > 100 µM (inactive) |
| O=[As](O)(O)c1ccc(/N=N/c2ccc(O)cc2)cc1 | > 100 µM (inactive) | > 100 µM (inactive) | > 100 µM (inactive) | > 100 µM (inactive) | 5.69 µM (inactive) | > 100 µM (inactive) | 4.32 µM (inactive) | > 100 µM (inactive) | > 100 µM (inactive) | > 100 µM (inactive) | > 100 µM (inactive) | > 100 µM (inactive) | > 100 µM (inactive) | > 100 µM (inactive) | > 100 µM (inactive) | – | > 100 µM (inactive) | > 100 µM (inactive) |
| CC1=C(O)C(=O)C[C@]2(C)[C@H]3CC=C4[C@@H]5CC(C)(C)CC[C@@H]5C(=O)[C@H](O)[C@@]4(C)[C@]3(C)CC[C@@H]12 | > 50 µM (inactive) | > 50 µM (inactive) | > 50 µM (inactive) | > 50 µM (inactive) | – | > 50 µM (inactive) | > 50 µM (inactive) | 16.6 µM (inactive) | > 50 µM (inactive) | > 50 µM (inactive) | 40.4 µM (inactive) | 22.6 µM (inactive) | 37.8 µM (inactive) | > 50 µM (inactive) | 17.3 µM (inactive) | – | > 50 µM (inactive) | > 50 µM (inactive) |
| Nc1ncnc2c1ccn2C/C=C/CO | > 100 µM (inactive) | > 100 µM (inactive) | > 100 µM (inactive) | > 100 µM (inactive) | > 100 µM (inactive) | > 100 µM (inactive) | > 100 µM (inactive) | > 100 µM (inactive) | > 100 µM (inactive) | > 100 µM (inactive) | > 100 µM (inactive) | > 100 µM (inactive) | > 100 µM (inactive) | > 100 µM (inactive) | > 100 µM (inactive) | – | > 100 µM (inactive) | > 100 µM (inactive) |
| CN(C(=O)Cc1cc(Cl)c(Cl)cc1NC(=O)CN)[C@H]1CCCC[C@@H]1N1CCCC1 | 35.1 µM (inactive) | > 100 µM (inactive) | 27.5 µM (inactive) | – | 24.7 µM (inactive) | 23.3 µM (inactive) | > 100 µM (inactive) | – | > 100 µM (inactive) | 38.8 µM (inactive) | > 100 µM (inactive) | 88.3 µM (inactive) | 24.2 µM (inactive) | 56.6 µM (inactive) | 20.7 µM (inactive) | 29 µM (inactive) | 25.7 µM (inactive) | 33.8 µM (inactive) |
| CC(=O)Nc1ccc2c(C(=O)O)c(C)c(O)nc2n1 | > 100 µM (inactive) | > 100 µM (inactive) | > 10 µM (inactive) | > 100 µM (inactive) | 59.8 µM (inactive) | > 100 µM (inactive) | 51.3 µM (inactive) | 32.5 µM (inactive) | > 100 µM (inactive) | – | – | 83.4 µM (inactive) | > 100 µM (inactive) | > 100 µM (inactive) | – | > 10 µM (inactive) | 89.7 µM (inactive) | > 100 µM (inactive) |
| CC(CSc1nc2c(c(=N)n1-c1ccccc1)c(=S)n(-c1ccccc1)c(=S)n2-c1ccccc1)CN(C)C (centres undefined) | 1.78 µM (inactive) | 1.61 µM (inactive) | 0.289 µM (active) | 1.83 µM (inactive) | 1.07 µM (active) | 1.87 µM (inactive) | 0.931 µM (active) | 1.11 µM (active) | 3.08 µM (inactive) | 1.71 µM (inactive) | 1.76 µM (inactive) | 1.6 µM (inactive) | 6.22 µM (inactive) | 1.81 µM (inactive) | 1.78 µM (inactive) | 0.558 µM (active) | 2.67 µM (inactive) | – |
| Cc1cc(=O)oc2cc(OS(C)(=O)=O)ccc12 | > 100 µM (inactive) | > 100 µM (inactive) | > 100 µM (inactive) | > 100 µM (inactive) | > 100 µM (inactive) | > 100 µM (inactive) | – | > 100 µM (inactive) | > 100 µM (inactive) | > 100 µM (inactive) | > 100 µM (inactive) | > 100 µM (inactive) | > 100 µM (inactive) | > 100 µM (inactive) | > 100 µM (inactive) | > 100 µM (inactive) | > 100 µM (inactive) | – |
| COc1cc(Cl)c(CC(=O)c2c[nH]c3ccccc23)cc1OC | 28.2 µM (inactive) | > 36.1 µM (inactive) | > 34.6 µM (inactive) | > 100 µM (inactive) | > 49.2 µM (inactive) | 8.95 µM (inactive) | > 100 µM (inactive) | – | > 81.7 µM (inactive) | > 51.9 µM (inactive) | > 100 µM (inactive) | 8.55 µM (inactive) | 16.1 µM (inactive) | 58.5 µM (inactive) | 8.93 µM (inactive) | > 100 µM (inactive) | > 28.5 µM (inactive) | – |
| NC(=O)CC1OC(=O)Cc2cc3c(c(O)c21)C(=O)c1c(O)cccc1C3=O (centres undefined) | > 100 µM (inactive) | > 100 µM (inactive) | 59.8 µM (inactive) | 61.2 µM (inactive) | 39.5 µM (inactive) | > 100 µM (inactive) | 71.3 µM (inactive) | > 100 µM (inactive) | > 100 µM (inactive) | – | > 100 µM (inactive) | > 100 µM (inactive) | > 100 µM (inactive) | > 100 µM (inactive) | – | 43.7 µM (inactive) | > 100 µM (inactive) | 32.9 µM (inactive) |
| O=C1CCN2C(=N1)Sc1ccccc12 | > 100 µM (inactive) | > 100 µM (inactive) | > 100 µM (inactive) | > 100 µM (inactive) | > 100 µM (inactive) | > 100 µM (inactive) | > 100 µM (inactive) | > 100 µM (inactive) | > 100 µM (inactive) | > 100 µM (inactive) | > 100 µM (inactive) | > 100 µM (inactive) | > 100 µM (inactive) | > 100 µM (inactive) | > 100 µM (inactive) | > 100 µM (inactive) | > 100 µM (inactive) | – |
| Cc1c(C(=O)c2ccccc2)[n+]([O-])c2cc(Cl)c(Cl)cc2[n+]1[O-] | 16.9 µM (inactive) | 3.03 µM (inactive) | 19.3 µM (inactive) | 18.1 µM (inactive) | 4.01 µM (inactive) | 11.1 µM (inactive) | 2.73 µM (inactive) | – | 17.9 µM (inactive) | 12.4 µM (inactive) | 4.11 µM (inactive) | 10 µM (inactive) | 14.9 µM (inactive) | 15.2 µM (inactive) | 0.0368 µM (active) | 1.54 µM (inactive) | 0.889 µM (active) | 11.8 µM (inactive) |
